The supplement of paper PMC13380429

What was measured:
Settings in all cases: 72 h
U2OS [1] = test: relative viability EC50 (midpoint between 100% and the lowest measured viability); higher = less toxic
Caco-2 [2] = test: as above
U2OS [3] = test: cell viability relative to DMSO; higher = less toxic
Caco-2 [4] = test: as above
U2OS [5] = test: drug sensitivity score (DSS) for viability; higher = more toxic; extreme values may be limits of the assay
Caco-2 [6] = test: as above
HepG2 [7] = test: relative viability EC50 (midpoint between 100% and the lowest measured viability); higher = less toxic
HepG2 [8] = test: cell viability relative to DMSO; higher = less toxic
Calu-3 [9] = test: as above
Vero E6 [10] = test: as above
HepG2 [11] = test: drug sensitivity score (DSS) for viability; higher = more toxic; extreme values may be limits of the assay
Calu-3 [12] = test: as above
Vero E6 [13] = test: as above
Vero E6 [14] = test: relative viability EC50 (midpoint between 100% and the lowest measured viability); higher = less toxic

SMILES	relative viability EC50 (U2OS [1])	relative viability EC50 (Caco-2 [2])	cell viability (U2OS [3]; 1 nM)	cell viability (U2OS [3]; 10 nM)	cell viability (U2OS [3]; 100 nM)	cell viability (U2OS [3]; 1000 nM)	cell viability (U2OS [3]; 10000 nM)	cell viability (Caco-2 [4]; 1 nM)	cell viability (Caco-2 [4]; 10 nM)	cell viability (Caco-2 [4]; 100 nM)	cell viability (Caco-2 [4]; 1000 nM)	cell viability (Caco-2 [4]; 10000 nM)	drug sensitivity score (U2OS [5])	drug sensitivity score (Caco-2 [6])	relative viability EC50 (HepG2 [7])	cell viability (HepG2 [8]; 1 nM)	cell viability (HepG2 [8]; 10 nM)	cell viability (HepG2 [8]; 100 nM)	cell viability (HepG2 [8]; 1000 nM)	cell viability (HepG2 [8]; 10000 nM)	cell viability (Calu-3 [9]; 1 nM)	cell viability (Calu-3 [9]; 10 nM)	cell viability (Calu-3 [9]; 100 nM)	cell viability (Calu-3 [9]; 1000 nM)	cell viability (Calu-3 [9]; 10000 nM)	cell viability (Vero E6 [10]; 1 nM)	cell viability (Vero E6 [10]; 10 nM)	cell viability (Vero E6 [10]; 100 nM)	cell viability (Vero E6 [10]; 1000 nM)	cell viability (Vero E6 [10]; 10000 nM)	drug sensitivity score (HepG2 [11])	drug sensitivity score (Calu-3 [12])	drug sensitivity score (Vero E6 [13])	relative viability EC50 (Vero E6 [14])
Cc1ccc(-c2c(-c3nn(C)c4ncnc(N5CC[C@H](N6CCCCC6)C5)c34)cnn2C)cc1	> 10 µM	> 10 µM	104%	99.5%	99%	98.9%	100%	106%	102%	106%	96.1%	100%	0	0																				
Cn1cccc1/C=C1\C(=O)NC(=O)c2ccccc21	3.28 µM		110%	105%	106%	101%	29.8%	106%	103%	108%	109%	55.2%	3.7	1.8	1.84 µM	83.2%	103%	72.1%	83%	21.2%	98.6%	97.5%	102%	91%	69%	104%	108%	104%	106%	71.4%	6.5	2.7	0.9	
NCC1OC(C23CC4CC(CC(C4)C2)C3)Cc2c1ccc(O)c2O (centres undefined)	> 10 µM		102%	100%	99%	94.9%	92.5%	114%	86.9%	94.3%	85.1%	54.4%	0	4	3.26 µM	101%	95.9%	103%	101%	26.5%	106%	98.1%	100%	94.2%	65.3%	94%	97.3%	96%	100%	58.8%	4	2.6	2	
O=C(NOCCO)c1cc(CN2OCCCC2=O)c(F)c(F)c1Nc1ccc(I)cc1F			97.2%	92.9%	90.1%	87.4%	43.7%	88.1%	76.9%	67.9%		68.2%	4.9	13.5		100%	70%	34%	19%	21.6%	96%	92.1%	61.7%	43.4%	32.7%	89.3%	85.2%	61.2%	50.7%	50.4%	26.2	15.9	15	
COc1cc2c(cc1O)CC[C@@H]1[C@@H]2CC[C@]2(C)[C@@H](O)CC[C@@H]12 [2-methoxyestradiol]	1.15 µM		96.4%	95.1%	102%	77.8%	46.5%	99.1%	105%	101%	77.4%	58.1%	5.9	4.9	3.99 µM	96.1%	99.9%	91.7%	115%	33.8%	103%	107%	106%	98.9%	60.2%	99.6%	97.8%	98.9%	94.8%	36.2%	2.8	2.1	4.3	2.5 µM
CCOC(=O)c1ccc(N2NC(=O)/C(=C/c3ccc([N+](=O)[O-])o3)C2=O)cc1 [PYR-41]	> 10 µM		93.5%	98.3%	101%	93.4%	75.5%	96%	100%	95.1%	85%	71.2%	1.8	2.6	> 10 µM	112%	99.7%	94.4%	105%	84.9%	85.5%	101%	92.2%	71.6%	62%	103%	103%	99.2%	101%	85.7%	0.1	5.7	0.1	> 10 µM
COc1cc(/C=C/c2ccc(OC)cc2OC)cc(OC)c1 [TMS]			98.8%	107%	94.1%	101%	52.5%	86.4%	97.6%	81.6%	92.4%	55.5%	2.4	4.2	1.94 µM	98.7%	94.7%	96.1%	91.5%	46.2%	97%	99.6%	92.6%	106%	62.8%	93.6%	95.5%	94.7%	91.3%	35%	4.3	1.4	5	2.08 µM
O=C(CCCN1CCN(c2ccccn2)CC1)c1ccc(F)cc1 [azaperone]													0																		0.7	0.1	0	
C#C[C@]1(O)CC[C@H]2[C@@H]3CCC4=Cc5oncc5C[C@]4(C)[C@H]3CC[C@@]21C [danazol]													0																		0	0	0	
CCN1C(=O)NC(c2ccccc2)C1=O (centres undefined) [ethotoin]													0																		0		0	
CCOc1ccc2nc(S(N)(=O)=O)sc2c1 [ethoxzolamide]			96.6%	97.9%	97.6%	99.3%	105%		102%	135%	98.6%	95.5%	0	0		101%	104%	98.6%	125%	116%	95.3%	101%	101%	101%	113%	84.1%	93.1%	89.4%	96.3%	116%	0	0	0	
N.N.O=C([O-])C[O-].[Pt+2] [nedaplatin]																															0			
C#C[C@]1(O)CC[C@H]2[C@@H]3CCC4=C(CCC(=O)C4)[C@H]3CC[C@@]21C [noretynodrel]		> 10 µM						99.5%	105%	104%	96.1%	99%		0												95.2%	99%	93.7%	95.9%	101%			0	> 10 µM
CC(=O)c1ccc2c(c1)N(CCCN1CCC(CCO)CC1)c1ccccc1S2 [piperacetazine]													0																		0.9	0	0	
Cc1cc(CC(C)CC(C)(C)C)n(O)c(=O)c1 (centres undefined) [piroctone-olamine]			95.1%	93.9%	100%	88%	54.8%	100%	96.3%	103%	97.6%	68%	4.2	1.8	> 10 µM	97.6%	102%	102%	110%	93.3%	98%	97.1%	102%	80%	72.4%	102%	96.1%	104%	95.5%	108%	0	3.4	0	> 10 µM
C/C(=N\NC(=N)N)c1cc(NC(=O)CCCCCCCCC(=O)Nc2cc(/C(C)=N/NC(=N)N)cc(/C(C)=N/NC(=N)N)c2)cc(/C(C)=N/NC(=N)N)c1 [semapimod]			101%	103%	96.3%	102%	67.6%	99.4%	103%	106%	91.1%	71%	1.3	2.5		91.9%	99.6%	104%	90.3%	65.6%	98.5%	98.6%	102%	88.1%	65.8%	100%	93.4%	92.1%	94.7%	75.9%	3	3.3	1.2	> 10 µM
CC(C)N1CCN(c2ccc(OCC3COC(Cn4cncn4)(c4ccc(Cl)cc4Cl)O3)cc2)CC1 (centres undefined) [terconazole]	> 10 µM		97.4%	104%	105%	104%	93.8%	90.6%	98.2%	94.3%	108%	70.9%	0	0.9		124%	121%	124%	89.8%	62.6%	103%	105%	89.1%	97.8%	54.7%	116%	96.8%	106%	90.8%	76.8%	3.3	2.6	1.9	> 10 µM
